Source: US9695155B2, “Herbicidal substituted pyrimidinyloxy benzene compounds” (E. I. DU PONT DE NEMOURS AND COMPANY, priority 2013, dated 2017)

Tests used:
[1] = test system: barnyardgrass; test: Test B flooded paddy test; format: in vivo, Echinochloa crus-galli; settings: Flood, 250 g ai/ha, 0 to 100 scale where 0 is no effect and 100 is complete control
Method in brief: (§1)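 Scores from 0 (no effect) to 100 (complete control) are visual comparisons with controls, taken 13 to 15 days after compound was applied into floodwater 3 cm deep around 2-leaf plants.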

[2] = test system: waterhemp; test: Test C preemergence; format: in vivo, Amaranthus rudis
Method in brief: (§2)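 Injury was assessed visually against controls 13 to 15 days after application, with 0 meaning no effect and 100 full control; missing entries are shown as a dash. Preemergence sprays hit seeded loam–sand soil, postemergence sprays hit 1- to 4-leaf plants.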

[3] = test system: ragweed; test: Test C postemergence; format: in vivo, Ambrosia elatior
Method in brief: as §2

[4] = test system: velvetleaf; test: Test A postemergence; format: in vivo, Abutilon theophrasti; settings: 0 to 100 scale where 0 is no effect and 100 is complete control
Method in brief: (§3)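 Pre- and postemergence greenhouse screen. Soil: loam + sand. Spray carrier: solvent mixture, non-phytotoxic, with surfactant. Post timing at 1–2 leaves, height 2–10 cm. Readout: visual injury on a 0–100 scale roughly 10 days after application, untreated plants as reference.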

[5] = test system: wheat, winter; test: Test C preemergence; format: in vivo, Triticum aestivum
Method in brief: as §2

[6] = test system: soybean; test: Test C preemergence; format: in vivo, Glycine max
Method in brief: as §2

[7] = test system: blackgrass; test: Test C postemergence; format: in vivo, Alopecurus myosuroides
Method in brief: as §2

[8] = test system: large (Lg) crabgrass; test: Test C postemergence; format: in vivo, Digitaria sanguinalis
Method in brief: as §2

[9] = test system: barnyardgrass; test: Test A postemergence; format: in vivo, Echinochloa crus-galli
Method in brief: as §3

[10] = test system: barnyardgrass; test: Test C preemergence; format: in vivo, Echinochloa crus-galli
Method in brief: as §2

[11] = test system: pigweed; test: Test A preemergence; format: in vivo, Amaranthus retroflexus
Method in brief: as §3

[12] = test system: morningglory; test: Test C preemergence; format: in vivo, Ipomoea coccinea
Method in brief: as §2

[13] = test system: rice; test: Test B flooded paddy test; format: in vivo, Oryza sativa; settings: Flood, 250 g ai/ha, 0 to 100 scale where 0 is no effect and 100 is complete control
Method in brief: as §1

[14] = test system: morningglory; test: Test A preemergence; format: in vivo, Ipomoea spp.
Method in brief: as §3

[15] = test system: pigweed; test: Test A postemergence; format: in vivo, Amaranthus retroflexus; settings: 0 to 100 scale where 0 is no effect and 100 is complete control
Method in brief: as §3

[16] = 62 g ai/ha, preemergence, scale 0 (no effect) to 100 (complete control)
[17] = 125 g ai/ha, preemergence, scale 0 (no effect) to 100 (complete control)
[18] = 250 g ai/ha, preemergence, scale 0 (no effect) to 100 (complete control)
[19] = Preemergence, 31 g ai/ha, scale 0 to 100, 0 no effect, 100 complete control
[20] = Postemergence, 31 g ai/ha, scale 0 to 100 (0 no effect, 100 complete control), 13 to 15 days
[21] = Postemergence, 62 g ai/ha, scale 0 to 100 (0 no effect, 100 complete control)
[22] = 125 g ai/ha, 0 to 100 scale where 0 is no effect and 100 is complete control
[23] = 500 g ai/ha, 0 to 100 scale, 0 no effect, 100 complete control, approx. 10 days

What does the source list for `N#Cc1cccc(Oc2ncc(F)cn2)c1-n1cc(Cl)cn1` [Compound 73]?
Plant response rating, Barnyardgrass [1]: 0; Waterhemp plant response rating [2, 16]: 100; Waterhemp plant response rating [2, 17]: 100; Waterhemp plant response rating [2, 18]: 100; Plant response rating, Waterhemp [2, 19]: 100; Plant response rating (0 to 100), Ragweed ([3]; 125 g ai/ha, postemergence): 50; Plant response rating (0 to 100), Ragweed ([3]; 250 g ai/ha, postemergence): 65; Plant response rating, Ragweed [3, 20]: 30; Plant response rating, Ragweed [3, 21]: 35; Plant response rating, Velvetleaf ([4]; 125 g ai/ha): 100; Plant response rating, Velvetleaf ([4]; 500 g ai/ha): 100; Wheat plant response rating [5, 16]: 0; Wheat plant response rating [5, 17]: 5; Wheat plant response rating [5, 18]: 85; Plant response rating, Wheat [5, 19]: 0; Soybean plant response rating [6, 16]: 60; Soybean plant response rating [6, 17]: 75; Soybean plant response rating [6, 18]: 90; Plant response rating (0 to 100), Blackgrass ([7]; 125 g ai/ha, postemergence): 5; Plant response rating (0 to 100), Blackgrass ([7]; 250 g ai/ha, postemergence): 25; Plant response rating, Blackgrass [7, 20]: 0; Plant response rating, Blackgrass [7, 21]: 0; Plant response rating (0 to 100), Crabgrass, Large ([8]; 125 g ai/ha, postemergence): 10; Plant response rating (0 to 100), Crabgrass, Large ([8]; 250 g ai/ha, postemergence): 20; Plant response rating, Crabgrass, Large [8, 20]: 5; Plant response rating, Crabgrass, Large [8, 21]: 10; Plant response rating, Barnyardgrass [9, 22]: 90; Plant response rating, Barnyardgrass ([9]; 500 g ai/ha, 0 to 100 scale, 0 no effect, 100 complete control): 90; Barnyardgrass plant response rating [10, 16]: 80; Barnyardgrass plant response rating [10, 17]: 100; Barnyardgrass plant response rating [10, 18]: 100; Plant response rating, Barnyardgrass [10, 19]: 60; Plant response rating, Pigweed [11, 22]: 100; Pigweed plant response rating [11, 23]: 100; Morningglory plant response rating [12, 16]: 45; Morningglory plant response rating [12, 17]: 95; Morningglory plant response rating [12, 18]: 98; Plant response rating, Morningglory [12, 19]: 45; Plant response rating, Rice [13]: 0; Plant response rating, Morningglory [14, 22]: 90; Morningglory plant response rating [14, 23]: 100; Plant response rating, Pigweed ([15]; 125 g ai/ha): 100; Plant response rating, Pigweed ([15]; 500 g ai/ha): 100

Which results are given for `FC(F)c1cccc(Oc2ncc(Cl)cn2)c1-n1cc(Br)cn1` [Compound 194, 2-[2-(4-bromo-1H-pyrazol-1-yl)-3-(difluoromethyl)phenoxy]-5-chloropyrimidine]?
pest or weed control at 250 g/ha ([1]; Echinochloa crus-galli, read-out: Plant response rating, Barnyardgrass): 0%; pest or weed control at 125 g/ha ([2]; Amaranthus tuberculatus, pre-emergence, 125 g ai/ha, preemergence, scale 0 (no effect) to 100 (complete control), read-out: Waterhemp plant response rating): 100%; pest or weed control at 250 g/ha ([2]; Amaranthus tuberculatus, pre-emergence, 250 g ai/ha, preemergence, scale 0 (no effect) to 100 (complete control), read-out: Waterhemp plant response rating): 100%; pest or weed control at 62 g/ha ([2]; Amaranthus tuberculatus, pre-emergence, Preemergence, 62 g ai/ha, scale 0 to 100, 0 no effect, 100 complete control, read-out: Plant response rating, Waterhemp): 100%; Ragweed plant response rating ([3]; 31 g ai/ha, postemergence, visual rating, scale 0 to 100 (0 no effect, 100 complete control), 13 to 15 days): 15; pest or weed control at 125 g/ha ([3]; Ambrosia artemisiifolia, post-emergence, 125 g ai/ha, postemergence, visual rating, scale 0 to 100 (0 no effect, 100 complete control), read-out: Plant response rating, Ragweed): 50%; pest or weed control at 250 g/ha ([3]; Ambrosia artemisiifolia, post-emergence, 250 g ai/ha, postemergence, read-out: Plant response rating (0 to 100), Ragweed): 50%; pest or weed control at 62 g/ha ([3]; Ambrosia artemisiifolia, post-emergence, Postemergence, 62 g ai/ha, scale 0 to 100 (0 no effect, 100 complete control), 13 to 15 days, read-out: Plant response rating, Ragweed): 25%; Velvetleaf plant response rating ([4]; 125 g ai/ha): 100; pest or weed control at 500 g/ha ([4]; Abutilon theophrasti, post-emergence, 240 h, 500 g ai/ha, read-out: Plant response rating, Velvetleaf): 100%; plant injury at 125 g/ha ([5]; Triticum aestivum, pre-emergence, 125 g ai/ha, preemergence, scale 0 (no effect) to 100 (complete control), read-out: Wheat plant response rating): 0%; plant injury at 250 g/ha ([5]; Triticum aestivum, pre-emergence, 250 g ai/ha, preemergence, scale 0 (no effect) to 100 (complete control), read-out: Wheat plant response rating): 35%; plant injury at 62 g/ha ([5]; Triticum aestivum, pre-emergence, Preemergence, 62 g ai/ha, scale 0 to 100, 0 no effect, 100 complete control, read-out: Plant response rating, Wheat): 0%; plant injury at 125 g/ha ([6]; Glycine max, pre-emergence, 125 g ai/ha, preemergence, scale 0 (no effect) to 100 (complete control), read-out: Soybean plant response rating): 25%; plant injury at 250 g/ha ([6]; Glycine max, pre-emergence, 250 g ai/ha, preemergence, scale 0 (no effect) to 100 (complete control), read-out: Soybean plant response rating): 45%; plant injury at 62 g/ha ([6]; Glycine max, pre-emergence, Preemergence, 62 g ai/ha, scale 0 to 100, 0 no effect, 100 complete control, read-out: Plant response rating, Soybean): 20%; pest or weed control at 31 g/ha ([7]; Alopecurus myosuroides, post-emergence, 31 g ai/ha, postemergence, visual rating, scale 0 to 100 (0 no effect, 100 complete control), 13 to 15 days, read-out: Blackgrass plant response rating): 15%; pest or weed control at 125 g/ha ([7]; Alopecurus myosuroides, post-emergence, 125 g ai/ha, postemergence, visual rating, scale 0 to 100 (0 no effect, 100 complete control), read-out: Plant response rating, Blackgrass): 30%; pest or weed control at 250 g/ha ([7]; Alopecurus myosuroides, post-emergence, 250 g ai/ha, postemergence, read-out: Plant response rating (0 to 100), Blackgrass): 35%; pest or weed control at 62 g/ha ([7]; Alopecurus myosuroides, post-emergence, Postemergence, 62 g ai/ha, scale 0 to 100 (0 no effect, 100 complete control), 13 to 15 days, read-out: Plant response rating, Blackgrass): 20%; pest or weed control at 31 g/ha ([8]; Digitaria sanguinalis, post-emergence, 31 g ai/ha, postemergence, visual rating, scale 0 to 100 (0 no effect, 100 complete control), 13 to 15 days, read-out: Crabgrass, Large plant response rating): 10%; pest or weed control at 125 g/ha ([8]; Digitaria sanguinalis, post-emergence, 125 g ai/ha, postemergence, visual rating, scale 0 to 100 (0 no effect, 100 complete control), read-out: Plant response rating, Crabgrass, Large): 10%; pest or weed control at 250 g/ha ([8]; Digitaria sanguinalis, post-emergence, 250 g ai/ha, postemergence, read-out: Plant response rating (0 to 100), Crabgrass, Large): 50%; pest or weed control at 62 g/ha ([8]; Digitaria sanguinalis, post-emergence, Postemergence, 62 g ai/ha, scale 0 to 100 (0 no effect, 100 complete control), 13 to 15 days, read-out: Plant response rating, Crabgrass, Large): 10%; pest or weed control at 125 g/ha ([9]; Echinochloa crus-galli, post-emergence, 240 h, 125 g ai/ha, 0 to 100 scale where 0 is no effect and 100 is complete control, read-out: Barnyardgrass plant response rating): 80%; pest or weed control at 500 g/ha ([9]; Echinochloa crus-galli, post-emergence, 240 h, 500 g ai/ha, 0 to 100 scale where 0 is no effect and 100 is complete control, read-out: Plant response rating, Barnyardgrass): 90%; pest or weed control at 125 g/ha ([10]; Echinochloa crus-galli, pre-emergence, 125 g ai/ha, preemergence, scale 0 (no effect) to 100 (complete control), read-out: Barnyardgrass plant response rating): 100%; pest or weed control at 250 g/ha ([10]; Echinochloa crus-galli, pre-emergence, 250 g ai/ha, preemergence, scale 0 (no effect) to 100 (complete control), read-out: Barnyardgrass plant response rating): 100%; pest or weed control at 62 g/ha ([10]; Echinochloa crus-galli, pre-emergence, Preemergence, 62 g ai/ha, scale 0 to 100, 0 no effect, 100 complete control, read-out: Plant response rating, Barnyardgrass): 85%; Pigweed plant response rating (0 to 100 scale) ([11]; 125 g ai/ha): 100; pest or weed control at 500 g/ha ([11]; Amaranthus retroflexus, pre-emergence, 240 h, 500 g ai/ha, 0 to 100 scale where 0 is no effect and 100 is complete control, read-out: Pigweed plant response rating): 100%; pest or weed control at 125 g/ha ([12]; Ipomoea, pre-emergence, 125 g ai/ha, preemergence, scale 0 (no effect) to 100 (complete control), read-out: Morningglory plant response rating): 95%; pest or weed control at 250 g/ha ([12]; Ipomoea, pre-emergence, 250 g ai/ha, preemergence, scale 0 (no effect) to 100 (complete control), read-out: Morningglory plant response rating): 98%; pest or weed control at 62 g/ha ([12]; Ipomoea, pre-emergence, Preemergence, 62 g ai/ha, scale 0 to 100, 0 no effect, 100 complete control, read-out: Plant response rating, Morningglory): 0%; plant injury at 250 g/ha ([13]; Oryza sativa, read-out: Plant response rating, Rice): 0%; Morningglory plant response rating (0 to 100 scale) ([14]; 125 g ai/ha): 60; pest or weed control at 500 g/ha ([14]; Ipomoea, pre-emergence, 240 h, 500 g ai/ha, 0 to 100 scale where 0 is no effect and 100 is complete control, read-out: Morningglory plant response rating): 100%; pest or weed control at 500 g/ha ([15]; Amaranthus retroflexus, post-emergence, 500 g ai/ha, read-out: Plant response rating, Pigweed): 100%; pest or weed control at 125 g/ha ([15]; Amaranthus retroflexus, post-emergence, 240 h, 125 g ai/ha, read-out: Pigweed plant response rating): 100%
